In general, AC50 refers to the concentration at which the activity in the assay is half-maximal.

Our source for the AC50 values is ChEMBL document CHEMBL5291721, “A preclinical secondary pharmacology resource illuminates target-adverse drug reaction associations of marketed drugs” (Nat Commun, 2023).

The target of one experiment is Mu-type opioid receptor (Homo sapiens, UniProt P35372).
Experiment [1] addresses cGMP-inhibited 3',5'-cyclic phosphodiesterase 3A (Homo sapiens, UniProt Q14432). Format: functional.
For experiment [2], the target named is Sodium-dependent serotonin transporter (Homo sapiens, UniProt P31645).
A further experiment addresses T1, Thromboxane A2 receptor (Homo sapiens, UniProt P21731).
T1 sequence (P21731 whole entry): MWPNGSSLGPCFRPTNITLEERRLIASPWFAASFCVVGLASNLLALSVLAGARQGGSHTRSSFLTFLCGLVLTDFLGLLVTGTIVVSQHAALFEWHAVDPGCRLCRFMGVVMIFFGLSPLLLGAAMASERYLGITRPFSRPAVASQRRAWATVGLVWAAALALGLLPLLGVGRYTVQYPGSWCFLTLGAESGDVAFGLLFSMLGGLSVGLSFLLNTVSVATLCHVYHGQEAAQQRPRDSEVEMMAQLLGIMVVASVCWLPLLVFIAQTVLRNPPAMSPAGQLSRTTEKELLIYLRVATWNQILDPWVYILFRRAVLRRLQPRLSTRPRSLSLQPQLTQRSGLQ
Format: functional, cell-based.

For another experiment, the target named is Adenosine receptor A2a (Homo sapiens, UniProt P29274).
Experiment [3] concerns the target Beta-2 adrenergic receptor (Homo sapiens, UniProt P07550).
Experiment [4] has as its target T2, Type-1 angiotensin II receptor (Homo sapiens, UniProt P30556).
T2 sequence (P30556 whole entry): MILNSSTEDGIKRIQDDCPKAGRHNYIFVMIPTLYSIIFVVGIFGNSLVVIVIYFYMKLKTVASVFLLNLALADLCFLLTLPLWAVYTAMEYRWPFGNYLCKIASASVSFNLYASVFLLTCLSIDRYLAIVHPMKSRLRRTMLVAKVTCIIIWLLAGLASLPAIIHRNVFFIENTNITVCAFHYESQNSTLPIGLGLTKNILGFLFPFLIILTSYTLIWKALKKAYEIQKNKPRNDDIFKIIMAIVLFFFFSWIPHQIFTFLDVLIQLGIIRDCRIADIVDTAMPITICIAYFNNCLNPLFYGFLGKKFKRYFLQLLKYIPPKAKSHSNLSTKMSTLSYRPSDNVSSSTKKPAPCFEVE

For experiment [5], the target named is T3, Muscarinic acetylcholine receptor M1 (Homo sapiens, UniProt P11229).
T3 sequence (P11229 whole entry): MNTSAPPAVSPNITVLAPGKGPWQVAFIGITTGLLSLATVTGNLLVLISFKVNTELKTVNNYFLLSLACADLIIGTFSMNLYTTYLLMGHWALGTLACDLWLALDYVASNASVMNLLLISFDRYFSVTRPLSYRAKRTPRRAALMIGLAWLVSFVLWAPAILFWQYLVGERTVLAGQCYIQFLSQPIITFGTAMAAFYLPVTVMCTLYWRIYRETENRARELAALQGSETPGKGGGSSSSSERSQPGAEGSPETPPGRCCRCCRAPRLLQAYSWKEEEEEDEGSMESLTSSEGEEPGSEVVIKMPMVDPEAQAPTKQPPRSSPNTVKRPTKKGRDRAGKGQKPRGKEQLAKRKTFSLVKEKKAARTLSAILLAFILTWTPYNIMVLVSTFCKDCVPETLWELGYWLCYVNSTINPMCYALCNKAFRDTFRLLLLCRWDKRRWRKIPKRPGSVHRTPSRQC
Format: functional.

The target in experiment [6] is Growth hormone secretagogue receptor type 1 (Homo sapiens, UniProt Q92847).
Experiment [7] deals with T4, 5-hydroxytryptamine receptor 3A (Homo sapiens, UniProt P46098).
T4 sequence (P46098 whole entry): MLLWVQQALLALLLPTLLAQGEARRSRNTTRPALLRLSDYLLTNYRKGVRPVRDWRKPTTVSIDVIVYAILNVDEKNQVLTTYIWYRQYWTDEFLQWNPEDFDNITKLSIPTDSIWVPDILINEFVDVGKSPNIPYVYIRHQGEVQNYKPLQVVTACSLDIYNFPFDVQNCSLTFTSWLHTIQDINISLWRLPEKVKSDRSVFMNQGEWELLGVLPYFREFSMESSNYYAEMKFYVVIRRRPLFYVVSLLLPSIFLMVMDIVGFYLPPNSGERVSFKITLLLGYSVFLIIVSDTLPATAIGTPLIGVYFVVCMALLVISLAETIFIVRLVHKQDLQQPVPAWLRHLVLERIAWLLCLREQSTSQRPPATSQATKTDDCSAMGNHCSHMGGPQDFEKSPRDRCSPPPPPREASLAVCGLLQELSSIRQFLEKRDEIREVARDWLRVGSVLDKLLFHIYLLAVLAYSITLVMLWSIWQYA
Format: functional.

Experiment [8] has as its target Sodium-dependent dopamine transporter (Homo sapiens, UniProt Q01959).
For experiment [9], the target named is Sodium-dependent noradrenaline transporter (Homo sapiens, UniProt P23975).
Experiment [10] addresses T5, Muscarinic acetylcholine receptor M2 (Homo sapiens, UniProt P08172).
T5 sequence (P08172 whole entry): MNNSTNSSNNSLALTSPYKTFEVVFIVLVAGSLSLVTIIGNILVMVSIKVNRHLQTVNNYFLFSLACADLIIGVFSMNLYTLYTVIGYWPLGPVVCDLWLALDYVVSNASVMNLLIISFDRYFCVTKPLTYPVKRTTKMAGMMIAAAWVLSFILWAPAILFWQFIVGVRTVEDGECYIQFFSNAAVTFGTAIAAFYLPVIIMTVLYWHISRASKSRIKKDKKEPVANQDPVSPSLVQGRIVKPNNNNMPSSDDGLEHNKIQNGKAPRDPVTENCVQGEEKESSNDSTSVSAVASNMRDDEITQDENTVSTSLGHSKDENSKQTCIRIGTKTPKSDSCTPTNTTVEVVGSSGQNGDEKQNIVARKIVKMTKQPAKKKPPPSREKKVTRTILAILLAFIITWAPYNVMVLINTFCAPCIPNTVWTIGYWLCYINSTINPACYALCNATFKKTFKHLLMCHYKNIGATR
Format: functional, cell-based.

In experiment [11] the target is 5-hydroxytryptamine receptor 2A (Homo sapiens, UniProt P28223). In kind it is functional, cell-based.
Also: assay procedure not described here.

Chain of Adenosine receptor A2a (P29274 whole entry): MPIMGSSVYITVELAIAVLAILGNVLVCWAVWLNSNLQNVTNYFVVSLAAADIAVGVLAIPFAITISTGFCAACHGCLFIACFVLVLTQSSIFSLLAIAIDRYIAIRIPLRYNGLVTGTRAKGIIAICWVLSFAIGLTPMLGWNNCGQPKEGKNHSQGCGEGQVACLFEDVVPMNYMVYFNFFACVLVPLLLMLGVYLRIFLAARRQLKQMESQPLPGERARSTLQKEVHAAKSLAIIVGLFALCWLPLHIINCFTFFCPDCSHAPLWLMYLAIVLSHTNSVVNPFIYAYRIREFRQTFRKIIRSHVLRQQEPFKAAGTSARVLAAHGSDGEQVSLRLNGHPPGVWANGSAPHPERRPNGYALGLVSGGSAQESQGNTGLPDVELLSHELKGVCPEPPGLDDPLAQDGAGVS
Chain of Beta-2 adrenergic receptor (P07550 whole entry): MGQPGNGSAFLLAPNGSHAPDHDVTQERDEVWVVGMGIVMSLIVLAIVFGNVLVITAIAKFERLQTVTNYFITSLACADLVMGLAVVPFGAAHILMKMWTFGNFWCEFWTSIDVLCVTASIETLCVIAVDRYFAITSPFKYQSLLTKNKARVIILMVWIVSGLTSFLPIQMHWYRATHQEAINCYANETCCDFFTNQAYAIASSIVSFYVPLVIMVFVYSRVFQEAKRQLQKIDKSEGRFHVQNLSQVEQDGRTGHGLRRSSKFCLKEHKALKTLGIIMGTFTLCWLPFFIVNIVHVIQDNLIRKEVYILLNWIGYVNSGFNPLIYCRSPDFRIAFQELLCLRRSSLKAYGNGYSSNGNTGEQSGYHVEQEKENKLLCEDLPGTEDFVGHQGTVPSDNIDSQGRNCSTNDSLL
Chain of Mu-type opioid receptor (P35372 whole entry): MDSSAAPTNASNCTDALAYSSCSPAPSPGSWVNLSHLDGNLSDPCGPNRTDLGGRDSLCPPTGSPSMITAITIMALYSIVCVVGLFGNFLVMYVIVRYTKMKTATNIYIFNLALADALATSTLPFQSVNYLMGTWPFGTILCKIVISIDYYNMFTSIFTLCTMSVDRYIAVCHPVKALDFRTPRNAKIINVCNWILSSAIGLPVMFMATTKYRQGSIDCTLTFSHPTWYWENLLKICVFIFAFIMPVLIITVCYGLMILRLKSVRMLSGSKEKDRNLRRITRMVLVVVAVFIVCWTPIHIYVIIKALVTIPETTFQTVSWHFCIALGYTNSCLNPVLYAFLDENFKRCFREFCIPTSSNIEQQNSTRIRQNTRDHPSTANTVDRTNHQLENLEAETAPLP
Chain of Sodium-dependent serotonin transporter (P31645 whole entry): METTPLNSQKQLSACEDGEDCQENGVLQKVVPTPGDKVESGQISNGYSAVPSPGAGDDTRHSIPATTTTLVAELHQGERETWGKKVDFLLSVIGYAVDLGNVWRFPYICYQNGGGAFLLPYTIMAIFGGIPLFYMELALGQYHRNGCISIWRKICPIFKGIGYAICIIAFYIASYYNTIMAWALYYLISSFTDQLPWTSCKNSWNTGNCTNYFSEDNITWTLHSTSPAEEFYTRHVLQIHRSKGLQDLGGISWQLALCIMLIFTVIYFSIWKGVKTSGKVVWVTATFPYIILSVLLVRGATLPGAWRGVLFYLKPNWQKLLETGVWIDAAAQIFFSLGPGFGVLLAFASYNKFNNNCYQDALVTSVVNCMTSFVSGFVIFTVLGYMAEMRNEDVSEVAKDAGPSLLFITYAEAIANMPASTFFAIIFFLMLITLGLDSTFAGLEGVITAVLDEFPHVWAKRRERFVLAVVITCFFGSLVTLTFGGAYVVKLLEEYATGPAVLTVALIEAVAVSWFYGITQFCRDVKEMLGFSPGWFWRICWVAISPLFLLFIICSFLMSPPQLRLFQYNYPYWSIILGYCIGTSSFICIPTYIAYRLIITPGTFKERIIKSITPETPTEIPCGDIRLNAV
Chain of Growth hormone secretagogue receptor type 1 (Q92847 whole entry): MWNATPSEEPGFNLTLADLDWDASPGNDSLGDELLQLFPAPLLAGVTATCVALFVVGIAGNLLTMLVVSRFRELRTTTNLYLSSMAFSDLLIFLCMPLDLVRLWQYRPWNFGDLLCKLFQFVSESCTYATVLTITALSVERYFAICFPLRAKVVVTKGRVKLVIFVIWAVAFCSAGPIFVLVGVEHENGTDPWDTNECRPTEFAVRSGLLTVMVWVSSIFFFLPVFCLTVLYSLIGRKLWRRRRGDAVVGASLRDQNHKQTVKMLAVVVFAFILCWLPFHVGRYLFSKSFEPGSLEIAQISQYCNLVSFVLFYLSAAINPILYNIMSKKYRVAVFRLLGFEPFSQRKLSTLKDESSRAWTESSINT
Chain of cGMP-inhibited 3',5'-cyclic phosphodiesterase 3A (Q14432 whole entry): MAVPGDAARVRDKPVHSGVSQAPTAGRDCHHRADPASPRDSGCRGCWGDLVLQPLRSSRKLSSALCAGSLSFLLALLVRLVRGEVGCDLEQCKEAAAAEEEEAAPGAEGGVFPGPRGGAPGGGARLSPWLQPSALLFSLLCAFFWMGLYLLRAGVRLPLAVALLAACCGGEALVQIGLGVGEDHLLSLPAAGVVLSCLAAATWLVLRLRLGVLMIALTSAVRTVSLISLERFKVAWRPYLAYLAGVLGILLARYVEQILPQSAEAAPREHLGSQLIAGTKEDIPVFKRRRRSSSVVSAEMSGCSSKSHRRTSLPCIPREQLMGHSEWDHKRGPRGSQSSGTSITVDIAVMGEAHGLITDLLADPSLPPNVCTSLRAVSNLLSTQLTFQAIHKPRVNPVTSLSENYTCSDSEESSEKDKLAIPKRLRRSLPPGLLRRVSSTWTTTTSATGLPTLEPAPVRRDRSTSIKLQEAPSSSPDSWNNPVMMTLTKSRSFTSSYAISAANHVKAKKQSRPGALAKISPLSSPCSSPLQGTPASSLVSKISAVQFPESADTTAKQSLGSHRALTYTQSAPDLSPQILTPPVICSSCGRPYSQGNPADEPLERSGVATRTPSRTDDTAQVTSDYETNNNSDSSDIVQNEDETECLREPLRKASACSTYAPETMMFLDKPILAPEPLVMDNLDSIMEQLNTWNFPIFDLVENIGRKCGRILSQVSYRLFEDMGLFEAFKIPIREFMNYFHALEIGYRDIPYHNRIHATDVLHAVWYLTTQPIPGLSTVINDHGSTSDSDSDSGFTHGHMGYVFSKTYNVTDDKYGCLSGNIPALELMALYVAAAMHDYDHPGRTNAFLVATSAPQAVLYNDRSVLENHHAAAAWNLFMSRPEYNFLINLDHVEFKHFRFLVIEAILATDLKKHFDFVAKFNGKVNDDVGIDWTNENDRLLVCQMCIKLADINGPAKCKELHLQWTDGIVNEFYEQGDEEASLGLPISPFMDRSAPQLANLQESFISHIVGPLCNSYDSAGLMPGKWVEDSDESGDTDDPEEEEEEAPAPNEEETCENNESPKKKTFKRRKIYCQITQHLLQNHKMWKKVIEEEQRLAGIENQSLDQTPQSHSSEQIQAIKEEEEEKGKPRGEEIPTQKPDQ
Chain of Sodium-dependent noradrenaline transporter (P23975 whole entry): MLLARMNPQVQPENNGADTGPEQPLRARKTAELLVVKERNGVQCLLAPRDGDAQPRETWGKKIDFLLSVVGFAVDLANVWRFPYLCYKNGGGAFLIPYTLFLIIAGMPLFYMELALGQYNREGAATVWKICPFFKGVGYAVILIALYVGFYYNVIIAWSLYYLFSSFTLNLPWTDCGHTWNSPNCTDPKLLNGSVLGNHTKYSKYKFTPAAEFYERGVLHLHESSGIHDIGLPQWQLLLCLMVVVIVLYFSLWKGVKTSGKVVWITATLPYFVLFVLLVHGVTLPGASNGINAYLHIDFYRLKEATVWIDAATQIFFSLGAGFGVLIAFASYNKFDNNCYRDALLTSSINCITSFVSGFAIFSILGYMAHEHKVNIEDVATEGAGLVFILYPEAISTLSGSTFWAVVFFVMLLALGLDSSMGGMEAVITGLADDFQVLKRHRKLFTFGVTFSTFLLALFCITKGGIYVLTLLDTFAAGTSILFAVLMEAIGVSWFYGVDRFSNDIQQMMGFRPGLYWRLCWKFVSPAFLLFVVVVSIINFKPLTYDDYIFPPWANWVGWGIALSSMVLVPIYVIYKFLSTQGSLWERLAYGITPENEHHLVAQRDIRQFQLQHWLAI
Chain of Sodium-dependent dopamine transporter (Q01959 whole entry): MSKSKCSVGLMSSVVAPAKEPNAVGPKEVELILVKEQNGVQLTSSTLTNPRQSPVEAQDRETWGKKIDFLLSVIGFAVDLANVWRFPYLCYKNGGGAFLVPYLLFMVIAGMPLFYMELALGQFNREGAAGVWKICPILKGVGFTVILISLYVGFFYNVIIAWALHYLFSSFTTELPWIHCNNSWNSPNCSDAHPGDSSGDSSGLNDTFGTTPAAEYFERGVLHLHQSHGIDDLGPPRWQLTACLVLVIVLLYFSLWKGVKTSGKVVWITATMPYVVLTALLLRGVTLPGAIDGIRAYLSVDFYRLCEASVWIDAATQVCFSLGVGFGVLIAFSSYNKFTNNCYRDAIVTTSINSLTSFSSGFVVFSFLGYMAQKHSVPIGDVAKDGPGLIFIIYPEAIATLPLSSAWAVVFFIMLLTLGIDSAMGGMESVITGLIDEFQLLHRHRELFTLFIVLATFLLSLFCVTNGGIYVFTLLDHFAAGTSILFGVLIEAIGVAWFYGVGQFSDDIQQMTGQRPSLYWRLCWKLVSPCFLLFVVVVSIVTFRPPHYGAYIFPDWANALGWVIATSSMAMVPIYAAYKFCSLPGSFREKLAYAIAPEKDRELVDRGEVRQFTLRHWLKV

Turning to `O=C1c2ccccc2C(=O)C1C(=O)C(c1ccccc1)c1ccccc1` [DIPHENADIONE], the AC50 at Mu-type opioid receptor was greater than 30 µM; in experiment [1] it was greater than 30 µM; in [2], greater than 30 µM; at Thromboxane A2 receptor, 7.02 µM.

In the case of `O=C1c2c(O)c(=O)ccn2N([C@@H]2c3ccccc3SCc3c2ccc(F)c3F)[C@@H]2COCCN12` [BALOXAVIR], the AC50 on Mu-type opioid receptor was 22 µM; in experiment [1], greater than 30 µM; in experiment [2], greater than 30 µM; at Thromboxane A2 receptor it was greater than 30 µM.

Take `CCC(=O)c1c(O)cc(O)cc1O` [FLOPROPIONE]: the AC50 (on Mu-type opioid receptor; in experiment [1]; in [2]; on Thromboxane A2 receptor) was greater than 30 µM throughout.

Consider `CN(C)C(=O)Oc1ccc[n+](C)c1` [PYRIDOSTIGMINE], for which the AC50 (on Mu-type opioid receptor; in experiment [1]; in [2]; on Thromboxane A2 receptor) was greater than 30 µM each time.

As to `CC(C)OC(=O)[C@H](C)N[P@](=O)(OC[C@H]1O[C@@H](n2ccc(=O)[nH]c2=O)[C@](C)(F)[C@@H]1O)Oc1ccccc1` [SOFOSBUVIR], the AC50 (at Mu-type opioid receptor; in experiment [1]; in experiment [2]; at Thromboxane A2 receptor) was greater than 30 µM throughout.

Consider `CC(N/C(=N\C#N)Nc1ccncc1)C(C)(C)C` (stereo not given) [PINACIDIL ANHYDROUS], for which the AC50 (at Mu-type opioid receptor; in [1]; in [2]; at Thromboxane A2 receptor) was greater than 30 µM each time.

As for `COc1cc(Nc2c(C#N)cnc3cc(OCCCN4CCN(C)CC4)c(OC)cc23)c(Cl)cc1Cl` [BOSUTINIB], the AC50 on Adenosine receptor A2a is greater than 30 µM; in [3] it was greater than 10 µM; in experiment [4] it was greater than 30 µM; in experiment [5], greater than 10 µM; in experiment [6], 4.3 µM; in [7] it was greater than 10 µM. In addition, the AC50 on Mu-type opioid receptor was 15.3 µM; in experiment [1], greater than 30 µM; in experiment [2] it was 3.21 µM; at Thromboxane A2 receptor it was greater than 10 µM; in experiment [8] it was 8.75 µM; in [9], greater than 10 µM.

`CCOC(=O)c1ccc(O)cc1` [ETHYLPARABEN]: the AC50 (at Mu-type opioid receptor; in experiment [1]; in experiment [2]; at Thromboxane A2 receptor) was greater than 30 µM in each case.

Regarding `CCO/N=C(\C(=O)N[C@@H]1C(=O)N2C(C(=O)[O-])=C(Sc3nc(-c4cc[n+](C)cc4)cs3)CS[C@H]12)c1nsc(N)n1` [CEFTAROLINE], the AC50 (on Mu-type opioid receptor; in [1]; in experiment [2]; at Thromboxane A2 receptor) was greater than 30 µM in each case.

As to `Cc1ccc(O)c2ncccc12` [TILIQUINOL], the AC50 (at Mu-type opioid receptor; in experiment [1]; in [2]; at Thromboxane A2 receptor) was greater than 30 µM each time.

Regarding `CC(=O)Oc1c(C)cc(OCC(O)CNC(C)C)c(C)c1C` (stereo not given) [METIPRANOLOL], the AC50 (at Mu-type opioid receptor; in experiment [1]; in [2]; on Thromboxane A2 receptor) was greater than 30 µM in each case.

`Cc1cc2c(cc1CC(=O)c1sccc1S(=O)(=O)Nc1onc(C)c1Cl)OCO2` [SITAXENTAN]: the AC50 (at Mu-type opioid receptor; in [1]; in experiment [2]; at Thromboxane A2 receptor) was greater than 30 µM in each case.

`C(=N\NC1=NCCN1)/c1c2ccccc2c(/C=N/NC2=NCCN2)c2ccccc12` [BISANTRENE]: the AC50 at Mu-type opioid receptor is 5.36 µM; in [1], greater than 30 µM; in experiment [2], 2.25 µM; at Thromboxane A2 receptor, greater than 30 µM.

Consider `O=C(CCCCCCC(=O)Nc1ccccc1)NO` [VORINOSTAT], for which the AC50 was greater than 30 µM on Adenosine receptor A2a; greater than 10 µM in experiment [3]; greater than 30 µM in experiment [4]; greater than 30 µM in experiment [5]; greater than 30 µM in [10]; greater than 30 µM in experiment [6]. For the same compound, the AC50 in experiment [11], in experiment [7], in experiment [8] and in experiment [9] was greater than 30 µM throughout.

Take `CCOC(=O)N[C@@H]1CC[C@@H]2[C@@H](C1)C[C@H]1C(=O)O[C@H](C)[C@H]1[C@H]2/C=C/c1ccc(-c2cccc(F)c2)cn1` [VORAPAXAR]: the AC50 at Mu-type opioid receptor was 0.82 µM; in experiment [1], greater than 30 µM; in experiment [2], greater than 10 µM; on Thromboxane A2 receptor it was greater than 30 µM.

As to `CC(=O)OC[C@H]1O[C@@H](n2ccc(=O)[nH]c2=O)[C@H](OC(C)=O)[C@@H]1OC(C)=O` [URIDINE TRIACETATE], the AC50 (on Mu-type opioid receptor; in [1]; in experiment [2]; at Thromboxane A2 receptor) was greater than 30 µM throughout.

For `O=C1[C@H](CC[C@H](O)c2ccc(F)cc2)[C@@H](c2ccc(O)cc2)N1c1ccc(F)cc1` [EZETIMIBE], the AC50 on Mu-type opioid receptor is 13.9 µM; in [1] it was greater than 30 µM; in experiment [2] it was greater than 30 µM; on Thromboxane A2 receptor, greater than 30 µM.

On to `C[N+](C)(C)CCCCCCCCCC[N+](C)(C)C` [DECAMETHONIUM], for which the AC50 (on Mu-type opioid receptor; in experiment [1]; in experiment [2]; on Thromboxane A2 receptor) was greater than 30 µM each time.

As for `COc1ccc2c(c1)C(=O)N(CCc1ccc(S(=O)(=O)NC(=O)NC3CCCCC3)cc1)C(=O)C2(C)C` [GLIQUIDONE], the AC50 (on Adenosine receptor A2a; in experiment [3]; in [4]; in experiment [5]; in [10]; in experiment [6]) was greater than 30 µM each time. In addition, the AC50 in experiment [11], in experiment [7], in experiment [8] and in experiment [9] was greater than 30 µM throughout.

On to `O=C(COc1ccc(Cl)cc1)N1CCN(Cc2ccc3c(c2)OCO3)CC1` [FIPEXIDE], for which the AC50 on Mu-type opioid receptor is 18.4 µM; in experiment [1], greater than 30 µM; in experiment [2], 29.2 µM; at Thromboxane A2 receptor it was greater than 30 µM.
